Laboratory results reported in PubChem BioAssay (NCI).
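These data come from cells grown in 96-well plates and exposed to compound for 48 hours at five concentrations. GI50 is the concentration that inhibits growth by half. Definition used: TGI = concentration required for complete inhibition of growth.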

Experiments:
Experiment in all cases: NCI-60 cell line screen, 48 h
BT-549 breast = system: BT-549 breast
LOX IMVI melanoma = system: LOX IMVI melanoma
NCI-H23 lung = system: NCI-H23 lung
NCI/ADR-RES ovarian = system: NCI/ADR-RES ovarian
SF-268 CNS = system: SF-268 CNS
SK-OV-3 ovarian = system: SK-OV-3 ovarian
SR leukemia = system: SR leukemia
UO-31 renal = system: UO-31 renal
NCI-H226 lung = system: NCI-H226 lung
NCI-H522 lung = system: NCI-H522 lung

Structure (SMILES) | GI50 (BT-549 breast) [µM] | TGI (BT-549 breast) [µM] | GI50 (LOX IMVI melanoma) [µM] | TGI (LOX IMVI melanoma) [µM] | GI50 (NCI-H23 lung) [µM] | TGI (NCI-H23 lung) [µM] | GI50 (NCI/ADR-RES ovarian) [µM] | TGI (NCI/ADR-RES ovarian) [µM] | GI50 (SF-268 CNS) [µM] | TGI (SF-268 CNS) [µM] | GI50 (SK-OV-3 ovarian) [µM] | TGI (SK-OV-3 ovarian) [µM] | GI50 (SR leukemia) [µM] | TGI (SR leukemia) [µM] | GI50 (UO-31 renal) [µM] | TGI (UO-31 renal) [µM] | GI50 (NCI-H226 lung) [µM] | TGI (NCI-H226 lung) [µM] | GI50 (NCI-H522 lung) [µM] | TGI (NCI-H522 lung) [µM]
C[CH2][Hg][S]c1ccccc1C(=O)O | 1.43 | 2.76 | 0.488 | 2.16 | 1.18 | 2.7 | 1.94 | 4.79 | 1.68 | 3.18 | 2.77 | 8.21 | 0.444 | 3.75 | 1.43 | 2.79 | – | – | – | –
CCc1c(C)nc2sc3c(N)ncnc3c2c1C | > 25 | > 25 | > 25 | > 25 | > 25 | > 25 | > 25 | > 25 | > 25 | > 25 | > 25 | > 25 | > 25 | > 25 | > 25 | > 25 | > 25 | > 25 | > 25 | > 25
FC(F)(F)c1cccc(-c2nn3ncccc3c2-c2ccnc(Nc3ccc4c(c3)OCCO4)n2)c1 | 16.4 | > 25 | 10 | > 25 | 14.8 | > 25 | 8.96 | > 25 | 19.4 | > 25 | 8.99 | > 25 | 10.4 | > 25 | 3.68 | > 25 | 14.2 | > 25 | 14 | > 25
CC1C=CC(OC(=O)C(C)(O)CCC(O)(C(=O)OC2CC(O)C(C(C)C)CC2(C)O)C(C)C)(C(C)C)CC1 (stereo unspecified) | 0.561 | 1.22 | 0.0734 | 0.142 | 0.591 | 1.33 | 0.725 | 2.22 | 0.645 | 1.64 | 0.799 | 4.1 | 0.263 | 46.3 | 0.329 | 1.02 | 0.716 | 2.48 | 0.576 | 1.36
Cc1[nH]nc(-c2ccon2)c1N=O | – | 38 | – | – | – | 45.8 | – | 38 | – | 42.8 | – | 89.2 | – | 29.5 | – | 46.6 | – | 28.6 | – | 48.5
COc1cc(C(=O)c2cc(C)c3[nH]c4ccc(O)cc4c3c2C)cc(OC)c1OC | < 0.0164 | 1.26 | < 0.0143 | > 100 | 0.0335 | > 40 | < 0.01 | – | 0.0741 | > 100 | 0.267 | 98.6 | < 0.01 | > 100 | 0.269 | > 100 | 0.0943 | > 81.3 | < 0.01 | 2.21
CN=C1OC2(c3ccccc3)C3=C(OC(=NC)N2C)C(=O)OC3(c2ccccc2)N1C (stereo unspecified) | – | > 100 | – | – | – | > 100 | – | > 100 | – | > 100 | – | > 100 | – | > 100 | – | – | – | > 100 | – | > 100
C=CCc1cc(Nc2c3ccc(Cl)cc3nc3ccc(OC)cc23)cc(CN(CC)CC)c1O | 1.38 | 8.1 | 1.23 | 2.58 | 0.559 | 9.91 | 2.88 | 10.8 | 2.9 | 16 | 1.9 | 6.62 | 0.362 | 3.47 | 2.02 | 11 | 1.15 | 10.8 | 1.77 | 5.96
N/C(=N\OC(=O)c1ccccc1)C(Cc1ccccc1)C(=O)NOC(=O)c1ccccc1 (stereo unspecified) | 4.26 | 16.5 | 1.46 | 3.68 | 3.54 | 17.4 | 2.72 | 11.3 | 1.64 | 3.33 | 5.48 | 18.2 | 1.08 | 3.68 | 1.45 | 3.07 | 3.51 | 14 | 1.7 | 3.47
Clc1ccc(C2ON=C(c3ccccc3)N2C23CC4CC(CC(C4)C2)C3)cc1 (stereo unspecified) | – | > 10 | – | > 10 | – | > 10 | – | > 10 | – | > 10 | – | > 10 | – | > 10 | – | – | – | > 10 | – | > 10
CC(=O)O[C@@H]1C[C@@]2(C)[C@@H]3CC=C4[C@@H](C[C@H](O)C(=O)C4(C)C)[C@]3(C)C(=O)C[C@]2(C)[C@H]1[C@@](C)(O)C(=O)/C=C/C(C)(C)OC(C)=O | – | 0.713 | – | > 33 | – | 24.1 | – | 43.8 | – | > 41.9 | – | 51.5 | – | > 53.4 | – | 0.881 | – | 3.31 | – | 4.55
COc1cc(-c2nn(-c3cccc(NC(=O)CCN4CCN(Cc5ccccc5)CC4)c3)cc2-c2ccncc2)ccc1Cl | 2.27 | 8.59 | 0.661 | 1.98 | 1.73 | 9.26 | 0.44 | 2.28 | 1.05 | 3.84 | 4.86 | 20.6 | 0.393 | 2.48 | 0.887 | 6.56 | 2.91 | 47.7 | 0.359 | 1.75
CC(C)C[C@H](NC(=O)CCn1ccc2ccccc2c1=O)B(O)O | 2.21 | 17.1 | 2.11 | 6.78 | 25.4 | > 100 | 67.1 | > 100 | 5.69 | 30.4 | 4.72 | 81.3 | 1.7 | 28.9 | 3.92 | 35.3 | 1.47 | 3.24 | 2.6 | 8.09
O=C(O)c1cc(CCc2cc(O)ccc2O)ccc1O | – | > 100 | – | > 100 | – | > 100 | – | > 100 | – | > 100 | – | > 100 | – | > 100 | – | > 100 | – | > 100 | – | > 100
